# Measured values: PubChem BioAssay AID1845207 (Molecular Pharmacology Branch, DTP, NCI, 2023)
# System: NCI-H1876 tumor spheroid viability
# Assay: Anticancer human tumor NCI-H1876 cell line growth inhibition;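 also: spheroids exposed to compounds for seven days before the viability read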;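 as to viability, T/C: percent of DMSO vehicle control viability so 100% = vehicle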
# Details: spheroids with HUVEC and MSC; for IC50: curve of first compound; for viability, T/C: stronger effect = lower value
# Source text: Multicellular complex tumor spheroid response to DNA repair inhibitors in combination with DNA-damaging drugs
# This study explores the anticancer activities of DNA-damaging drugs and inhibitors of DNA damage repair, both as single agents and in combinations. Complex tumor spheroids comprised of malignant cells, endothelial cells and mesenchymal stem cells served as an in vitro model for human solid tumors. This model system incorporates physiologically relevant features and patient-derived or established malignant cell lines with clinically relevant genetic alterations from many tumor types. Twenty-six patient-derived or established malignant cell lines were evaluated representing sarcoma, melanoma, small cell lung cancer (SCLC), non-small cell lung cancer (NSCLC), as well as bladder, ovarian and pancreatic cancers. The concentration ranges selected for each drug and investigational agent were based upon clinically achievable concentrations if the clinical Cmax of the agent was known.
# Compounds. The drugs and compounds olaparib (NSC753686), talazoparib (NSC767125), berzosertib (NSC777718), elimusertib (NSC800525), nedisertib (NSC802822), VX-984 (NSC792969), AZD-1390 (NSC803789), temozolomide (NSC362856), topotecan (NSC609699), trabectedin (NSC813783), staurosporine (NSC755774), and gemcitabine (NSC613327) were obtained from the National Cancer Institute (NCI) Developmental Therapeutics Program Chemical Repository. The FDA-approved anticancer drug set is available from the Developmental Therapeutics Program at https://dtp.cancer.gov/organization/dscb/obtaining/available_plates.htm. […] The stock solutions were prepared in dimethyl sulfoxide (DMSO, Sigma-Aldrich, St. Louis, MO, cat. D2650) at 400-fold the tested concentration and stored at -70 degrees C. Prior to their use, the stock solutions were diluted in fresh medium and the final DMSO concentration in the assay was 0.25% (v/v). All drugs and investigational agents were tested over a range starting from a high concentration at or near the clinical Cmax and decreasing in half-log increments. If the clinical Cmax for an agent had not been determined, the highest concentration tested was 10 microM.
# Cell Lines. The patient-derived cancer cell (PDC) lines: 156681-154-R-J1-PDC, 283228-195-R-J1-PDC, 287954-098-R-J1-PDC, 292921-168-R-J2-PDC, 349418-098-R-PDC, 425362-245-T-J1-PDC, 556581-035-R-J1-PDC, and BL0293-F563-PDC were received from the NCI Patient-Derived Models Repository (PDMR, https://pdmr.cancer.gov). The established cell lines HS-SY-2 (RRID:CVCL_8719), MPNST, and SYO-1 (RRID:CVCL_7146) were obtained from the Sloan Kettering Institute. The alveolar soft parts sarcoma cell line ASPS-1 (RRID:CVCL_S738) was established at the NCI and grown from internal seed stocks. The following established cell lines were purchased from the American Type Culture Collection (ATCC, Manassas, VA): G-401 (ATCC, cat. CRL-1441, RRID:CVCL_0270), SW982 (ATCC, cat. HTB-93, RRID:CVCL_1734), VA-ES-BJ (ATCC, cat. CRL-2138, RRID:CVCL_1785), NCI-H719 (ATCC, cat. CRL-5837, RRID:CVCL_1582), NCI-H196 (ATCC, cat. CRL-5823, RRID:CVCL_1509), NCI-H841 (ATCC, cat. CRL-5845, RRID:CVCL_1595), NCI-H1618 (ATCC, cat. CRL-5879, RRID:CVCL_1480), NCI-H1876 (ATCC, cat. CRL-5902, RRID:CVCL_1503), DMS 114 (ATCC, cat. CRL-2066; RRID:CVCL_1174), NCI-H211 (ATCC, cat. CRL-5824; RRID:CVCL_1529), and SW 1271 (ATCC, cat. CRL-2177, RRID:CVCL_1716). The small cell lung cancer cell line COR-L88 was purchased from Sigma-Aldrich (cat. 92031917-1VL, RRID:CVCL_1141). The non-small cell lung cancer cell lines NCI-H226 (RRID:CVCL_1544) and NCI-H322M (RRID:CVCL_1557) were established at the NCI and grown from internal seed stocks. Pooled donor human umbilical vein endothelial cells (HUVEC, Lonza, cat. CC-2519) and human mesenchymal stem cells (hMSC, Lonza, cat. PT-2501) were purchased from Lonza (Walkersville, MD).
# Cell Culture. All cells were maintained in an incubator at 37 degrees C and 5% CO2 with 95% humidity. […]
# [1] = second compound 1 µM, first compound 0.00949 µM
# [2] = second compound 1 µM, first compound 0.03 µM
# [3] = second compound 1 µM, first compound 0.0949 µM
# [4] = second compound 1 µM, first compound 0.3 µM
# [5] = second compound 1 µM, first compound 0.949 µM
# [6] = second compound 1 µM, first compound 3 µM
# [7] = second compound 3.16 µM, first compound 0.00949 µM
# [8] = second compound 3.16 µM, first compound 0.03 µM
# [9] = second compound 3.16 µM, first compound 0.0949 µM
# [10] = second compound 3.16 µM, first compound 0.3 µM
# [11] = second compound 3.16 µM, first compound 0.949 µM
# [12] = second compound 3.16 µM, first compound 3 µM
# [13] = second compound 10 µM, first compound 0.00949 µM
# [14] = second compound 10 µM, first compound 0.03 µM
# [15] = second compound 10 µM, first compound 0.0949 µM
# [16] = second compound 10 µM, first compound 0.3 µM
# [17] = second compound 10 µM, first compound 0.949 µM
# [18] = second compound 10 µM, first compound 3 µM
# [19] = second compound 31.6 µM, first compound 0.00949 µM
# [20] = second compound 31.6 µM, first compound 0.03 µM
# [21] = second compound 31.6 µM, first compound 0.0949 µM
# [22] = second compound 31.6 µM, first compound 0.3 µM
# [23] = second compound 31.6 µM, first compound 0.949 µM
# [24] = second compound 31.6 µM, first compound 3 µM
# [25] = second compound 100 µM, first compound 0.00949 µM
# [26] = second compound 100 µM, first compound 0.03 µM
# [27] = second compound 100 µM, first compound 0.0949 µM
# [28] = second compound 100 µM, first compound 0.3 µM
# [29] = second compound 100 µM, first compound 0.949 µM
# [30] = second compound 100 µM, first compound 3 µM
SMILES,IC50 (second compound 1 µM),IC50 (second compound 3.16 µM),IC50 (second compound 10 µM),IC50 (second compound 31.6 µM),IC50 (second compound 100 µM),"viability, T/C [1]","viability, T/C [2]","viability, T/C [3]","viability, T/C [4]","viability, T/C [5]","viability, T/C [6]","viability, T/C [7]","viability, T/C [8]","viability, T/C [9]","viability, T/C [10]","viability, T/C [11]","viability, T/C [12]","viability, T/C [13]","viability, T/C [14]","viability, T/C [15]",also measured
CNCc1ccc(-c2cc(-c3nc(-c4ccc(S(=O)(=O)C(C)C)cc4)cnc3N)on2)cc1 + Cn1nnc2c(C(N)=O)ncn2c1=O,121 nM,83.7 nM,92.3 nM,89.3 nM,< 9.49 nM,82%,70.7%,54.9%,33.6%,12.6%,0.35%,95.4%,54.9%,55.4%,29.7%,15.2%,0.44%,86.9%,65.2%,54%,"viability, T/C [16]: 29.9%; viability, T/C [17]: 13.1%; viability, T/C [18]: 11%; viability, T/C [19]: 82%; viability, T/C [20]: 57.8%; viability, T/C [21]: 58.2%; viability, T/C [22]: 30.1%; viability, T/C [23]: 51.8%; viability, T/C [24]: 45.7%; viability, T/C [25]: 50.8%; viability, T/C [26]: 43%; viability, T/C [27]: 36.5%; viability, T/C [28]: 20.9%; viability, T/C [29]: 47.9%; viability, T/C [30]: 0.26%"
Cc1sc2c(c1C)C(c1ccc(Cl)cc1)=NC(CC(=O)Nc1ccc(O)cc1)c1nnc(C)n1-2 (stereo not given) + Cn1nnc2c(C(N)=O)ncn2c1=O,55.8 nM,176 nM,89.4 nM,73.7 nM,23.5 nM,85.6%,56%,45%,27%,15.7%,8.48%,84%,75.2%,54.2%,50.6%,15.3%,10.5%,87.3%,62.2%,55.1%,"viability, T/C [16]: 31%; viability, T/C [17]: 15.1%; viability, T/C [18]: 9%; viability, T/C [19]: 87.3%; viability, T/C [20]: 75.6%; viability, T/C [21]: 39.4%; viability, T/C [22]: 25.6%; viability, T/C [23]: 13.2%; viability, T/C [24]: 8.31%; viability, T/C [25]: 63.4%; viability, T/C [26]: 44.6%; viability, T/C [27]: 34.2%; viability, T/C [28]: 19.6%; viability, T/C [29]: 9.06%; viability, T/C [30]: 4.09%"
